Each block holds one compound with its values, some of them ahead of it.
What was measured:
[1] = human, after felbamate; cited from earlier work
[2] = LC/MS quantification of felbamate and its metabolites excreted in patient urine; format: in vivo, human; conditions: 34 urine samples from 31 patients on felbamate therapy
Description: Preparation of Patient Urine Samples. Urine samples were obtained from patient volunteers undergoing felbamate therapy for control of epileptic seizures and under the care of physicians at either the University of Virginia (Charlottesville, Va.) or the EpiCare Center (Memphis, Tenn.). Urine samples were diluted four fold with distilled water (this was done prior to overnight shipment for samples requiring shipping) and placed in an orbital shaking water bath for˜20 min at 37° C. to insure that all of the analytes were in solution. 500 μL of this diluted sample were removed and added to 100 μL of a mixture of the four deuterated internal standards. […] After mixing, 200 μL were removed and added to 20 μL of 20% H0Ac. […] This fraction was then analyzed by LC/MS without further manipulation.
LC/MS Analysis of Urine Samples for Metabolite Quantification. LC/MS analysis was performed using a Waters 2690 HPLC equipped with an autosampler and a Waters 486 tunable absorbance detector. […] The post-column flow was directed through a Waters 486 tunable absorbance detector (10 μL flow cell, λ=214 nm) which was used for qualitative assessment of the sample and not for quantitation. […]
Quantification was achieved by integration of the peaks from the mass chromatogram for each analyte using software (Navigator 1.1) provided with the LCQ. […]

[3] = cited from earlier work
[4] = test system: rat model of painful peripheral neuropathy; conditions: rat (Imamura 1995); cited from earlier work
[5] = test system: intractable tic douloureux; conditions: doses of 1200-2400 mg/day (Chesire 1995); cited from earlier work
[6] = felbamate therapy; cited from earlier work
[7] = Chemical stability of felbamate metabolites; format: physicochemical; conditions: at relevant pH

SMILES: NC(=O)CC(C(=O)O)c1ccccc1 (centres unmarked) [acid carbamate 4, 3-carbamoyl-2-phenylpropionic acid]
fraction of a felbamate dose represented by the metabolite [1]: ~12 % of a dose

SMILES: NC(=O)OCC(COC(N)=O)c1ccccc1 [felbamate, 2-phenyl-1,3-propanediol dicarbamate]
presence of atropaldehyde derived mercapturic acids 7 and 8 in urine [2]: All of the urine samples analyzed were found to contain both of the mercapturic acids
course of weight loss ([3]; add-on therapy in partial epilepsy in children (Carmant 1994)): weight loss was transient and returned to normal after twenty weeks
weight loss ([3]; patients on felbamate monotherapy (Faught 1993)): 4-5%
measures of pain [4]: significant reductions in all measures of pain
treatment effect [5]: effectively treated
mean onset time of severe toxicities [6]: ≤ 6 months

stability [7]: unstable
SMILES: O=C1NC(=O)C(c2ccccc2)CO1 (centres unmarked) [oxazinane-dione 9]
